Test results: paper PMC4364341, “NBD delivery improves the disease phenotype of the golden retriever model of Duchenne muscular dystrophy” (Skeletal Muscle, 2014)

Assays:
GRMD dogs [1] = assay: MRI of proximal pelvic limb muscles, GRMD dogs; type: in vivo, dog; parameters: MRI T2 mapping value: unit not given here; conditions: 6 months, NBD 10 mg/kg IV 3x weekly for 4 months, n = 6
Description: Studies were done on a Siemens 3 T Allegra Head-Only MRI scanner with a circular polarization (CP) head coil or Siemens 3 T Tim Trio Whole-Body MRI scanner with a 32-channel body coil at the UNC-CH Biomedical Research Imaging Center (BRIC). Dogs were anesthetized (above), placed on an MRI gantry in the sternal (prone) position with the pelvic limbs extended, and positioned in the coil centered at the midpoint of the femur. The proximal pelvic limbs from the coxofemoral joint to the stifle were imaged bilaterally. Scans were completed using a published protocol. T2-weighted image sequences without (T2w) and with fat saturation (T2fs) were acquired using a variable-flip-angle turbo spin echo (TSE) sequence. The time between the excitation pulse and the center of k-space was 400 ms. Importantly, the contrast was not determined only by the TE (400 ms), but also by the flip angle evolution scheme. Although a traditional TSE sequence would have very little signal at 400 ms, the variable flip angle sequence is similar in principle to hyper-echo. The hyper-echo reduces the specific absorption rate (SAR), while the variable flip angle sequence allows long TE times. A multi-spin-echo T2 (MSE-T2), using a 10-echo Carr-Purcell-Meiboom-Gill sequence, was acquired to calculate the T2 value map. Analysis of the images was completed in three modules: muscle segmentation, pre-processing, and biomarker analysis. As a prerequisite, we first segmented the major proximal pelvic limb muscles in the MRI images. All proximal pelvic limb muscles were segmented but only five slices at the midfemur were analyzed and averaged.
For the sake of this study, the biomarker analysis was limited to muscle volumes, T2 mapping values, and several texture analysis features, including a first-order intensity histogram texture feature (entropy) and two high order run length matrix features (short run emphasis (SRE) and run length non-uniformity (RLN)). These texture analysis features were assessed as potential markers of patchy lesions such as necrosis. Based on the mathematical model, we refer to short run emphasis as the Small Lesion Index (SLI) and non-uniformity as the Heterogeneity Index (HI). Both SLI and HI use the run-length matrix method. Compared to histogram-based biomarkers that use intensity data only, the run-length matrix method also takes into account the spatial distribution and intensity of the voxels. A gray-level ‘run’ is defined as a set of consecutive voxels of similar intensity level in a given direction within a predefined similarity range. This is run in a three-dimensional matrix and is intended to detect lumps of hyper-intensity in MRI. To determine overall muscle scores for T2 and the texture features in each group, the proportional muscle volume was considered, so as to calculate a weighted average.

[2] = dog, in vivo, iv, 10 mg/kg
Procedure: In addition to efficacy, we were interested in examining the safety profile of NBD, since long-term dosing in any animal model had yet to be performed. Blood samples at pre-dose, mid dose, and terminal dose were obtained for hematology and serum chemistry analysis. […] Supplementary file 2044-5040-4-18-S2.jpeg: Additional file 2: Figure S2 Hematologic changes in NBD-treated dogs. Serum was prepared from blood samples obtained at indicated time points prior to and following dosing with NBD in wild type and GRMD dogs. Serum samples were analyzed for complete blood counts (CBC). The graphs show results for white blood cells, red blood cells, and platelet counts. Click here for file Supplementary file 2044-5040-4-18-S3.jpeg: Additional file 3: Figure S3 Clinicopathologic changes in NBD-treated dogs. Serum was prepared from blood samples obtained at indicated time points prior to and following dosing with NBD in wild type and GRMD dogs. Serum samples were analyzed for ALT, AST, GGT, bilirubin, creatinine, potassium, and creatine kinase. Click here for file

mdx mice = conditions: cited from earlier work
Description: […] […] Our ability to collectively achieve such a benefit in GRMD dogs, as well as in mdx diaphragm, [9, 13] and dko hearts, supports the pre-clinical efficacy of NBD. Due to interspecies differences among mice, dogs, and humans, it is difficult to say e ...

GRMD dogs [3] = assay: Joint and pelvic angles, GRMD dogs; type: in vivo, dog; conditions: n = 6
Description: We previously reported that 6-month-old GRMD dogs have abnormally acute (contracted) TTJ angles while positioned in dorsal recumbence for force measurements. Other investigators have subsequently described methods to measure joint angles at maximal flexion and extension, with associated range of motion, in wild type dogs. The method of Jaegger et al.[29] is now utilized to measure pelvic limb tibiotarsal (hock, ankle), stifle (knee), and coxofemoral (hip) joint angles for ongoing natural history and preclinical trials in our laboratory. In each case, dogs were anesthetized (above) and positioned in lateral recumbence. Angles at rest, maximal flexion, and maximal extension were measured. To objectively characterize the cranioventral shift of the pelvis typically seen in GRMD dogs, we also measured the pelvic angle formed by two lines extending cranially from the tuber ischium, one drawn parallel to the lumbar spine and the other extending to the midpoint of the tuber coxae.

[4] = NBD group, age 2 months (start of treatment)
[5] = age 6 months, NBD 10 mg/kg IV 3x weekly for 4 months

## TALDWSWLQTE [NBD, NBD peptide (…) fused to an Antennapedia protein transduction domain]
GRMD dogs [1]; Adductor
  MRI HI (Heterogeneity Index, run length non-uniformity): 116.2 ± 22.37
  MRI SLI (Small Lesion Index, short run emphasis): 0.72 ± 0.02
  MRI T2 mapping value: 39.52 ± 4.76
GRMD dogs [1]; All muscles (weighted average)
  MRI HI (Heterogeneity Index, run length non-uniformity): 86.01 ± 18.28
  MRI SLI (Small Lesion Index, short run emphasis): 0.70 ± 0.04^^
  MRI T2 mapping value: 47.34 ± 3.10^^
GRMD dogs [1]; Biceps Femoris
  MRI HI (Heterogeneity Index, run length non-uniformity): 87.50 ± 48.42
  MRI SLI (Small Lesion Index, short run emphasis): 0.68 ± 0.06^^
  MRI T2 mapping value: 40.20 ± 4.91^^
GRMD dogs [1]; Caudal Sartorius
  MRI HI (Heterogeneity Index, run length non-uniformity): 35.21 ± 14.92
  MRI SLI (Small Lesion Index, short run emphasis): 0.83 ± 0.05
  MRI T2 mapping value: 53.87 ± 9.88
GRMD dogs [1]; Cranial Sartorius
  MRI SLI (Small Lesion Index, short run emphasis): 0.79 ± 0.05
  MRI T2 mapping value: 49.40 ± 9.01
GRMD dogs [1]; Gracilis
  MRI HI (Heterogeneity Index, run length non-uniformity): 58.90 ± 30.66
  MRI SLI (Small Lesion Index, short run emphasis): 0.70 ± 0.06^^
  MRI T2 mapping value: 45.91 ± 3.50
GRMD dogs [1]; Rectus Femoris
  MRI HI (Heterogeneity Index, run length non-uniformity): 55.42 ± 21.95
  MRI SLI (Small Lesion Index, short run emphasis): 0.68 ± 0.07^^
  MRI T2 mapping value: 37.23 ± 4.72
GRMD dogs [1]; Semimembranosus
  MRI HI (Heterogeneity Index, run length non-uniformity): 78.15 ± 33.31
  MRI SLI (Small Lesion Index, short run emphasis): 0.68 ± 0.06
  MRI T2 mapping value: 39.42 ± 4.86
GRMD dogs [1]; Semitendinosus
  MRI HI (Heterogeneity Index, run length non-uniformity): 81.43 ± 35.00
  MRI SLI (Small Lesion Index, short run emphasis): 0.67 ± 0.08^^
  MRI T2 mapping value: 40.41 ± 4.97^^
GRMD dogs [1]; Vastus Intermedius
  MRI HI (Heterogeneity Index, run length non-uniformity): 59.10 ± 27.19
  MRI SLI (Small Lesion Index, short run emphasis): 0.68 ± 0.09
  MRI T2 mapping value: 41.91 ± 5.91^^
GRMD dogs [1]; Vastus Lateralis
  MRI HI (Heterogeneity Index, run length non-uniformity): 52.92 ± 27.20
  MRI SLI (Small Lesion Index, short run emphasis): 0.68 ± 0.04^^
  MRI T2 mapping value: 40.67 ± 5.84^^
GRMD dogs [1]; Vastus Medialis
  MRI HI (Heterogeneity Index, run length non-uniformity): 52.55 ± 22.29
  MRI SLI (Small Lesion Index, short run emphasis): 0.77 ± 0.09
  MRI T2 mapping value: 42.74 ± 5.65
[2]
  Hematology and serum chemistry analysis: no adverse effects
Mdx mice; IP 3x per week, concentrations of NBD reduced from 10 to 2 mg/kg
  Efficacy on dose reduction: efficacy was lost
Mdx mice; NBD-treated mdx mice
  Functional improvement, mdx diaphragm: 43%
GRMD dogs [3]; [4]
  Hip (Resting) angle: 103.7 ± 2.94
  Maximum Hip Flexion: 44.67 ± 5.47 °
  Pelvic Angle: 41.00 ± 6.81 °
  TTJ Angle: 157.00 ± 9.80 °
GRMD dogs [3]; [5]
  Hip (Resting) angle: 100.2 ± 6.01^2
  Maximum Hip Flexion: 46.33 ± 3.50^2 °
  Pelvic Angle: 36.83 ± 5.12^2 °
  TTJ Angle: 160.17 ± 8.84 °
